Data published in ChEMBL document CHEMBL4619713, “Novel PDE5 inhibitors derived from rutaecarpine for the treatment of Alzheimer's disease” (Bioorg Med Chem Lett, 2020).
Activity calls are given as the source filed them. The rule behind the calls is not given here.

Columns and labels:
Homo sapiens [1] = species on record: Homo sapiens; experiment: Selectivity index, ratio of IC50 for PDE6 (unknown origin) to IC50 for PDE5A (unknown origin)
[2] = target: cGMP-specific 3',5'-cyclic phosphodiesterase (Homo sapiens, UniProt O76074); experiment: Inhibition of PDE5A (unknown origin)
Mus musculus [3] = experiment: Cognitive enhancing effect in mouse mouse model of scopolamine-induced cognition deficit assessed as decrease in frequent error at 5 and 10 mg/kg by water maze test; type: functional, organism-based
Homo sapiens [4] = species on record: Homo sapiens; experiment: Selectivity index, ratio of IC50 for PDE9 (unknown origin) to IC50 for PDE5A (unknown origin)
Mus musculus [5] = experiment: Cognitive enhancing effect in mouse mouse model of scopolamine-induced cognition deficit assessed as reduction in escape latency at 5 and 10 mg/kg by water maze test; type: functional, organism-based
Phosphodiesterase 6 = experiment: Inhibition of PDE6 (unknown origin); type: protein assay, Homo sapiens
Homo sapiens [6] = species on record: Homo sapiens; experiment: Selectivity index, ratio of IC50 for PDE2 (unknown origin) to IC50 for PDE5A (unknown origin)
Phosphodiesterase 4 = Phosphodiesterase 4 (Homo sapiens, UniProt P27815+Q08499+Q07343+Q08493); experiment: Inhibition of PDE4 (unknown origin); type: protein assay
[7] = target: cAMP and cAMP-inhibited cGMP 3',5'-cyclic phosphodiesterase 10A (Homo sapiens, UniProt Q9Y233); experiment: Inhibition of PDE10 (unknown origin)
Sequence of cAMP and cAMP-inhibited cGMP 3',5'-cyclic phosphodiesterase 10A (Q9Y233 whole entry): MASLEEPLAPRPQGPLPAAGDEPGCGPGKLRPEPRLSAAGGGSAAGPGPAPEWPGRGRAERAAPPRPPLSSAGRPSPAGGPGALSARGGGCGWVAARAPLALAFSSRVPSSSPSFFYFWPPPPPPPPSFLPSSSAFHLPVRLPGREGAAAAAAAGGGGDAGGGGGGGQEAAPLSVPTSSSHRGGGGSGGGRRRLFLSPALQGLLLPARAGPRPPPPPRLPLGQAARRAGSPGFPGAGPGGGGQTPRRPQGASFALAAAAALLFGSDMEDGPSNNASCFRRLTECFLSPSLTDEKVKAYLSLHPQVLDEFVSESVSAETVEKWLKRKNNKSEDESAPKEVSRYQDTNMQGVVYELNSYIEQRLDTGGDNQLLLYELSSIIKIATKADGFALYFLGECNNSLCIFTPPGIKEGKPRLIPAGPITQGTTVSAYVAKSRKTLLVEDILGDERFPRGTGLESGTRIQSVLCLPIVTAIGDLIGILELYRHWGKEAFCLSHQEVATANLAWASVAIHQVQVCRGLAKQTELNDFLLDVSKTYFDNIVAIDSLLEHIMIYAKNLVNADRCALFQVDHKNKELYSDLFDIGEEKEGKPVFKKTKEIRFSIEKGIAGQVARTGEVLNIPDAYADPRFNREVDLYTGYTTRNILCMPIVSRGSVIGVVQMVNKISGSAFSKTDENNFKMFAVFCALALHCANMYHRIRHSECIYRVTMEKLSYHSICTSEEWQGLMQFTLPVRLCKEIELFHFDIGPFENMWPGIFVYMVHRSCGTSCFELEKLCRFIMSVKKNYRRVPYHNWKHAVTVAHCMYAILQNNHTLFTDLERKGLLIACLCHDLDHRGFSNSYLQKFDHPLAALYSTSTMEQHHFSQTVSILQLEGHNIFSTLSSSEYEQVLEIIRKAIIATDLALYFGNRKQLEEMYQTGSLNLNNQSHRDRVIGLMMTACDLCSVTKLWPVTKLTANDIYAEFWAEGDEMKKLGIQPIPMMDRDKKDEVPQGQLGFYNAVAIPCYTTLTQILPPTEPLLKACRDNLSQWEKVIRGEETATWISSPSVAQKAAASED

[8] = target: cGMP-dependent 3',5'-cyclic phosphodiesterase (Homo sapiens, UniProt O00408); experiment: Inhibition of PDE2 (unknown origin)
Sequence of cGMP-dependent 3',5'-cyclic phosphodiesterase (O00408 whole entry): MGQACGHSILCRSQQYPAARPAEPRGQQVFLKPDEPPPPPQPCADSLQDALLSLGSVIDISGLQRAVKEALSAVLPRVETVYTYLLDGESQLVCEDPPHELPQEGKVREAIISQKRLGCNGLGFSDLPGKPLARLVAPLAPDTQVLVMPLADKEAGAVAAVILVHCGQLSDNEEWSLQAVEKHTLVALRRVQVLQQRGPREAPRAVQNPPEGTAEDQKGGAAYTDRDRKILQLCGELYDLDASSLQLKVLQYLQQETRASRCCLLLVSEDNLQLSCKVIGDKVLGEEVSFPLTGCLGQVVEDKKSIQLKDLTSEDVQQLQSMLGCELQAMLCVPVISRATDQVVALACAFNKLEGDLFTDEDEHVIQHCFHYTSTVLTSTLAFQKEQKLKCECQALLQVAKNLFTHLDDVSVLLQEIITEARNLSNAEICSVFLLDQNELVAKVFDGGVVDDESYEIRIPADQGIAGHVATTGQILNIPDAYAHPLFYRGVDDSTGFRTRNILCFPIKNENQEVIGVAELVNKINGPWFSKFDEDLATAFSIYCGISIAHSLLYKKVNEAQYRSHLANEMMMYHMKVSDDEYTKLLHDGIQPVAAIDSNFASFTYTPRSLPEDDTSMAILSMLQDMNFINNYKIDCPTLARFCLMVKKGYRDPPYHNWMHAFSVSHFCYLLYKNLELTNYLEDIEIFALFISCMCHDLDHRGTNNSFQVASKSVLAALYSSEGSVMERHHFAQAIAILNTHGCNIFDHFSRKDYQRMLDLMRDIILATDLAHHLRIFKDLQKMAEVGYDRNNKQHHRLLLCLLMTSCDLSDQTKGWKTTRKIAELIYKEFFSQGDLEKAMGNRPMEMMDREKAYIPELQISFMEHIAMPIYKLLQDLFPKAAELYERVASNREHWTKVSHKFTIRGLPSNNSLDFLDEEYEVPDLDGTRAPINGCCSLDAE

Homo sapiens [9] = species on record: Homo sapiens; experiment: Selectivity index, ratio of IC50 for PDE4 (unknown origin) to IC50 for PDE5A (unknown origin)
[10] = target: High affinity cGMP-specific 3',5'-cyclic phosphodiesterase 9A (Homo sapiens, UniProt O76083); experiment: Inhibition of PDE9 (unknown origin)
Sequence of High affinity cGMP-specific 3',5'-cyclic phosphodiesterase 9A (O76083 whole entry): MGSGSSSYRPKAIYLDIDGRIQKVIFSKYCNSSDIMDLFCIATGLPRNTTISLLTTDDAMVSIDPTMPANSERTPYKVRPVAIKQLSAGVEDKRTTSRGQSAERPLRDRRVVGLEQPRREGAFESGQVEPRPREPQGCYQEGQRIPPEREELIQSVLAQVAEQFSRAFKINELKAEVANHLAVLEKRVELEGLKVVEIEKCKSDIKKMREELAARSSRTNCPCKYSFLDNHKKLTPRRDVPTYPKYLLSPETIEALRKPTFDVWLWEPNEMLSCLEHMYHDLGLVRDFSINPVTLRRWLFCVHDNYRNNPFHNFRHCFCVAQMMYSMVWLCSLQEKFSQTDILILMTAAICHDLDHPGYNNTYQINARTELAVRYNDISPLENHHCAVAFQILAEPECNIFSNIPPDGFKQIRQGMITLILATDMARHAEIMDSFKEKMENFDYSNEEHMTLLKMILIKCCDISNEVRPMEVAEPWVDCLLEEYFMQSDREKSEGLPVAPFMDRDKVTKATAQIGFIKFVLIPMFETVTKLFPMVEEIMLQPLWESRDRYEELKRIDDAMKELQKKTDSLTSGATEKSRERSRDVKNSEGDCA

SMILES	IC50 [2] [µM]	further results
CCCc1nn(C)c2c(=O)[nH]c(-c3cc(S(=O)(=O)N4CCN(C)CC4)ccc3OCC)nc12		Ratio IC50 (Homo sapiens [1]): 10
CCCCn1c2c(c3ccc(OC)cc31)CCn1c-2nc2ccccc2c1=O	9.19	
CCCn1c2c(c3c(OC)cc(OC)cc31)CCn1c-2nc2ccccc2c1=O	19.8	
CCCCn1c2c(c3ccc(O)cc31)CCn1c-2nc2ccccc2c1=O	0.63	
CCn1c2c(c3ccc(OC)cc31)CCn1c-2nc2ccccc2c1=O	11.6	
CCCCn1c2c(c3c(OC)cc(OC)cc31)CCn1c-2nc2ccccc2c1=O	20.6	
CCCCn1c2c(c3c(O)cc(O)cc31)CCn1c-2nc2ccccc2c1=O	0.26	
CCn1c2c(c3c(O)cc(O)cc31)CCn1c-2nc2ccccc2c1=O	0.97	
O=c1c2ccccc2nc2n1CCc1c-2[nH]c2cc(O)cc(O)c12	0.79	
COc1ccc2c3c(n(CCC(C)C)c2c1)-c1nc2ccccc2c(=O)n1CC3	6.17	
COc1cc(OC)c2c3c([nH]c2c1)-c1nc2ccccc2c(=O)n1CC3	45.6	
CCn1c2c(c3ccccc31)CCn1c-2nc2ccccc2c1=O	1.12	
COc1cc(OC)c2c3c(n(CCC(C)C)c2c1)-c1nc2ccccc2c(=O)n1CC3	18.2	
CC(C)CCn1c2c(c3ccc(O)cc31)CCn1c-2nc2ccccc2c1=O	0.11	
CCCn1c2c(c3ccc(OC)cc31)CCn1c-2nc2ccccc2c1=O	12.1	
CCCn1c2c(c3ccccc31)CCn1c-2nc2ccccc2c1=O	1.7	
CCn1c2c(c3c(OC)cc(OC)cc31)CCn1c-2nc2ccccc2c1=O	47.3	
CCCn1c2c(c3c(O)cc(O)cc31)CCn1c-2nc2ccccc2c1=O	0.33	
COc1ccc2c3c([nH]c2c1)-c1nc2ccccc2c(=O)n1CC3	22.1	
CCCn1c2c(c3ccc(O)cc31)CCn1c-2nc2ccccc2c1=O	1.33	
O=c1c2ccccc2nc2n1CCc1c-2[nH]c2ccccc12 [RUTAECARPINE]	1.23	
CC(C)CCn1c2c(c3ccccc31)CCn1c-2nc2ccccc2c1=O	0.61	
COc1cc2c(cc1OC)C(=O)C(CC1CCN(Cc3ccccc3)CC1)C2 (stereo not drawn) [DONEPEZIL]	> 100	
O=c1c2ccccc2nc2n1CCc1c-2[nH]c2cc(O)ccc12	1.36	
CC(C)CCn1c2c(c3c(O)cc(O)cc31)CCn1c-2nc2ccccc2c1=O	0.086	Activity (Mus musculus [3]): Active; Ratio IC50 (Homo sapiens [4]): > 5000; Activity (Mus musculus [5]): Active; IC50 (Phosphodiesterase 6): 43.8 µM; Ratio IC50 (Homo sapiens [6]): > 5000; IC50 (Phosphodiesterase 4): > 500 µM; Ratio IC50 (Homo sapiens [1]): > 500; IC50 [7]: 32.1 µM; IC50 [8]: > 500 µM; Ratio IC50 (Homo sapiens [9]): > 5000; IC50 [10]: > 500 µM
CCn1c2c(c3ccc(O)cc31)CCn1c-2nc2ccccc2c1=O	0.97	
CCCCn1c2c(c3ccccc31)CCn1c-2nc2ccccc2c1=O	1.12	
